Measured values as given in US10500222B2, “Compositions and methods relating to treatment of infection” (Wayne State University, priority 2015, dated 2019).
Entries after “also recorded” stand apart in the source; their conditions may differ.

How the values were obtained:
Assay type in all cases: in vivo, C57BL/6 (B6) mice
[1] = system: P. aeruginosa KEI 1025 infected cornea; assay: Ocular response to bacterial infection (clinical score, slit lamp), KEI 1025 keratitis; conditions: subconj. 1 day before infection + IP 1 and 3 days p.i., vs PBS
Text: P. aeruginosa strains, KEI 1025, a non-cytotoxic clinical isolate strain expressing exoT and exoS, and not expressing exoU, described in Estrellas P S, Jr., et al., Curr Eye Res. 2000; 20:157-165 (obtained from Kresge Eye Institute, Detroit, Mich.), and a cytotoxic strain, 19660, expressing exoU, described in Finck-Barbancon V, et al., Mol Microbiol. 1997; 25:547-557; and Fleiszig S M, et al., Infect Immun. 1997; 65:579-586 (obtained from American Type Culture Collection, ATCC, Manassas, Va.), were grown in peptone tryptic soy broth (PTSB) medium in a rotary shaker water bath at 37° C. and 150 rpm for 18 h to an optical density (measured at 540 nm) between 1.3-1.8. Bacterial cultures were pelleted by centrifugation at 5,500 g for 10 min. Pellets were washed once with sterile saline, re-centrifuged, re-suspended and diluted in sterile saline. Anesthetized (using anhydrous ethyl ether) mice were placed beneath a stereoscopic microscope at 40× magnification. The left cornea was scarified with three 1-mm incisions using a sterile 25^5/8 gauge needle. The wounded corneal surface was topically treated with 5 μl containing 1×10^7 CFU/μl (KEI 1025) or 1×10^6 CFU/μl (ATCC strain 19660) of the P. aeruginosa suspension.
An established corneal disease grading scale, described in detail in Hazlett L D, et al., Invest Ophthalmol Vis Sci. 1987; 28:1978-1985, was used to assign a clinical score value to each infected eye at 1, 3 and 5 days post infection (p.i.). Clinical scores were designated as: 0=clear or slight opacity, partially or fully covering the pupil; +1=slight opacity, fully covering the anterior segment; +2=dense opacity, partially or fully covering the pupil; +3=dense opacity, covering the entire anterior segment; and +4=corneal perforation or phthisis. Clinical scores were used to statistically compare disease severity and were accompanied by photographs using a slit lamp (5 days p.i.) to confirm and illustrate the response.
(§1) The left eyes of B6 mice (n=5/group/time) were injected with 5 μl of 2 μg/μl glycyrrhizin (GLY) (Sigma-Aldrich, St. Louis, Mo.) or PBS (control) subconjunctivally, one day before infection. Similar treatment was done using carbenoxolone (CBX) (Sigma-Aldrich, St. Louis, Mo.). All mice were injected intraperitoneally (IP) at 1 and 3 days p.i. with 100 μl of GLY (2 μg/μl) or CBX (1 μg/μl). PBS served as control for all these experiments. In a separate similar experiment mice were treated one day before infection with GLY subconjunctivally and injected intraperitoneally (i.p.) with GLY plus recombinant (r) HMGB1 (1 μg/100 μl) or GLY plus PBS. IP injections were similarly given at 1 and 3 days p.i. In an additional experiment, KEI 1025 infected B6 mice were treated with 5 μl of 2 μg/μl GLY subconjunctivally at 6 hours p.i. and injected intraperitoneally at 1 and 3 days p.i. with 100 μl of GLY (2 μg/μl).

[2] = system: mRNA levels in P. aeruginosa KEI 1025 infected cornea; assay: Real time RT-PCR of cornea, KEI 1025 infection
Protocol: as §1
KEI 1025 or ATCC strain 19660 infected GLY or PBS treated mice were sacrificed at 5 days p.i. and the normal, contralateral (uninfected) and infected cornea was harvested. For each cornea, total RNA was isolated (RNA STAT-60™; Tel-Test, Friendswood, Tex.) according to the manufacturer's instructions. Upon spectrophotometric quantification at 260 nm, 1 μg of each RNA sample was reverse transcribed using Moloney-murine leukemia virus (M-MLV) reverse transcriptase (Invitrogen, Carlsbad, Calif.) to produce a cDNA template for the PCR reaction. cDNA products were diluted 1:25 with diethylpyrocarbonate (DEPC)-treated water. A 2 μl aliquot of diluted cDNA was used for the real-time RT-PCR reaction with Real-Time SYBR® Green/Fluorescein PCR Master Mix (Bio-Rad) and primer concentrations of 10 μM (total 10 μl reaction volume). After a pre-programmed hot start cycle (3 min at 95° C.), the parameters used for PCR amplification were: 15 sec at 95° C. and 60 sec at 60° C. with the cycles repeated 45 times. Optimal conditions for PCR amplification of cDNA were established using routine methods. mRNA levels of HMGB1, RAGE, IL-1β, TLR2, TLR4, CXCL2, TNF-α, NLR family pyrin domain containing 3 (NLRP3), NLR family CARD domain containing 4 (NLRC4), IL-12, TGF-β, IL-10, single Ig IL-1-related receptor (SIGIRR) and interleukin 1 receptor-like 1 (ST2) were tested by real-time RT-PCR (CFX Connect™ Real-Time PCR Detection System; Bio-Rad, Richmond, Calif.). The fold differences in gene expression were calculated after normalization to β-actin and expressed as the relative mRNA concentration+SEM.

P. aeruginosa KEI 1025 = assay: Quantification of viable bacteria (plate count), KEI 1025 infection; conditions: pretreatment subconj. + IP, vs PBS
Protocol: as §1
Mice were sacrificed at 3 and 5 days p.i. and KEI 1025 or ATCC strain 19660 infected corneas from GLY, CBX or PBS (or GLY+/−rHMGB1) treated B6 mice were harvested (n=5/group/time). Each cornea was homogenized in 1 ml of sterile saline (0.85% NaCl, pH 7.4) containing 0.25% BSA. A 100 μl of the corneal homogenate was serially diluted (1:10) in sterile saline containing 0.25% BSA. Selected dilutions were plated in triplicate on selective culture medium (Difco™ Pseudomonas Isolation Agar, BD Biosciences, Inc., Franklin Lakes, N.J.). Plates were incubated overnight at 37° C. and viable bacteria manually counted. Results are reported as log10 CFU/cornea±SEM.

[3] = KEI 1025, pretreatment subconj. + IP, infected cornea 5 days p.i., vs PBS

## CC1(C)[C@@H](OC(=O)CCC(=O)O)CC[C@]2(C)[C@H]3C(=O)C=C4[C@@H]5C[C@@](C)(C(=O)O)CC[C@]5(C)CC[C@@]4(C)[C@]3(C)CC[C@@H]12 [CBX, carbenoxolone]
[1]; 3 days p.i.
  clinical scores: statistically significant reduction in disease scores; also recorded: only reduced at 3 days
[1]; 5 days p.i.
  clinical scores: not at 5 (p=0.2) days p.i.
  opacity, slit lamp photographs: reduced opacity
[2]; [3]
  CXCL2 mRNA levels: reduced
  HMGB1 mRNA levels: no difference
  IL-1β mRNA levels: significantly reduced
  IL-12 mRNA levels: only GLY reduced
  NLRC4 mRNA levels: only GLY reduced
  NLRP3 mRNA levels: reduced
  SIGIRR mRNA levels: increased modestly
  TGF-β mRNA levels: reduced
  TLR2 mRNA levels: did not differ from PBS controls
  TLR4 mRNA: reduced
  TNF-α mRNA levels: reduced by both GLY and CBX, but only GLY (p<0.01) was significant
[2]; normal (uninfected) corneas, among PBS, CBX, GLY groups
  mRNA levels of the other molecules tested: no differences
P. aeruginosa KEI 1025; 3 days p.i.
  bacterial load in the corneas (plate count): not at 3 days p.i.
P. aeruginosa KEI 1025; 5 days p.i.
  bacterial load in the corneas (plate count): significantly reduced
